Experimental data from patent US9113629B2, “4-amino-6-(4-substituted-phenyl)-picolinates and 6-amino-2-(4-substituted-phenyl)-pyrimidine-4-carboxylates and their use as herbicides” (DOW AGROSCIENCES LLC, priority 2013, dated 2015).
Read-outs that look alike come from different tables or passages of the source.

Columns and labels:
[1] = tested on: Key Grass and Sedge Weeds as well as Grass Crops; assay: Post-emergent Test II herbicidal activity (Table 6); format: in vivo; details: post-emergence, 336 h; for pest or weed control at 70 g/ha: 70 g ai/ha; for pest or weed control at 140 g/ha: 140 g ai/ha
How it was run: (§1)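 Spray rates: a highest rate plus ½×, ¼×, ⅛×, 1/16×, all delivered at 187 L/ha to plants at the first–second true leaf stage. Readout is a visual percent injury score at 14 d, where 100 means complete kill.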

[2] = tested on: Key Broadleaf Weed and Crop Species; assay: Post-emergent Test II herbicidal activity (Table 5); format: in vivo; details: post-emergence, 336 h, 14 days after application; for pest or weed control at 70 g/ha: application rate 70 g ai/ha; for pest or weed control at 140 g/ha: application rate 140 g ai/ha
How it was run: as §1

[3] = CYPES: yellow nutsedge (Cyperus esculentus), read-out: Visual Growth Reduction (%) 14 Days After Application, CYPES
[4] = DIGSA: crabgrass (Digitaria sanguinalis), read-out: Visual Growth Reduction (%) 14 Days After Application, DIGSA
[5] = ECHCG: barnyardgrass (Echinochloa crus-galli), read-out: Visual Growth Reduction (%) 14 Days After Application, ECHCG
[6] = ORYSA: rice (Oryza sativa), crop, read-out: Visual Growth Reduction (%) 14 Days After Application, ORYSA
[7] = SETFA: giant foxtail (Setaria faberi), read-out: Visual Growth Reduction (%) 14 Days After Application, SETFA
[8] = SORVU: grain sorghum (Sorghum vulgare), read-out: Visual Growth Reduction (%) 14 Days After Application, SORVU
[9] = TRZSS (wheat, Triticum aestivum), crop, read-out: Visual Growth Reduction (%) 14 Days After Application, TRZSS
[10] = ZEAMX: maize, corn (Zea mays), crop, read-out: Visual Growth Reduction (%) 14 Days After Application, ZEAMX
[11] = ABUTH: velvetleaf (Abutilon theophrasti), read-out: Visual Growth Reduction (%) 14 Days After Application, ABUTH
[12] = AMARE: redroot pigweed (Amaranthus retroflexus), read-out: Visual Growth Reduction (%) 14 Days After Application, AMARE
[13] = BRSNN: oilseed-rape, canola (Brassica napus), read-out: Visual Growth Reduction (%) 14 Days After Application, BRSNN
[14] = CHEAL: lambsquarters (Chenopodium album), read-out: Visual Growth Reduction (%) 14 Days After Application, CHEAL
[15] = EPHHL: wild poinsettia (Euphorbia heterophylla), read-out: Visual Growth Reduction (%) 14 Days After Application, EPHHL
[16] = HELAN: sunflower (Helianthus annuus), read-out: Visual Growth Reduction (%) 14 Days After Application, HELAN
[17] = VIOTR: wild pansy (Viola tricolor), read-out: Visual Growth Reduction (%) 14 Days After Application, VIOTR

For C#Cc1ccc(-c2nc(C(=O)OC)c(Cl)c(N)c2F)c(F)c1 [Compound 121], the pest or weed control at 70 g/ha [1, 3] was 45 to 59%, the pest or weed control at 140 g/ha [1, 3] was 45 to 59% and the pest or weed control at 70 g/ha [1, 4] was 0 to 29%. The pest or weed control at 140 g/ha [1, 4] was 0 to 29%, the pest or weed control at 70 g/ha [1, 5] was 0 to 29% and the pest or weed control at 140 g/ha [1, 5] was 0 to 29%. For the same compound, the pest or weed control at 70 g/ha [1, 6] was 0 to 29%, the pest or weed control at 140 g/ha [1, 6] was 0 to 29% and the pest or weed control at 70 g/ha [1, 7] was 0 to 29%. For the same compound, the pest or weed control at 140 g/ha [1, 7] was 0 to 29%, the pest or weed control at 70 g/ha [1, 8] was 45 to 59% and the pest or weed control at 140 g/ha [1, 8] was 60 to 74%. The pest or weed control at 70 g/ha [1, 9] was 0 to 29%, the pest or weed control at 140 g/ha [1, 9] was 0 to 29% and the pest or weed control at 70 g/ha [1, 10] was 95 to 100%. For the same compound, the pest or weed control at 140 g/ha [1, 10] was 95 to 100%, the pest or weed control at 70 g/ha [2, 11] was 85 to 94% and the pest or weed control at 140 g/ha [2, 11] was 85 to 94%. For the same compound, the pest or weed control at 70 g/ha [2, 12] was 0 to 29%, the pest or weed control at 140 g/ha [2, 12] was 0 to 29% and the pest or weed control at 70 g/ha [2, 13] was 85 to 94%. The pest or weed control at 140 g/ha [2, 13] was 95 to 100%, the pest or weed control at 70 g/ha [2, 14] was 75 to 84% and the pest or weed control at 140 g/ha [2, 14] was 95 to 100%. For the same compound, the pest or weed control at 70 g/ha [2, 15] was 45 to 59%, the pest or weed control at 140 g/ha [2, 15] was 95 to 100% and the pest or weed control at 70 g/ha [2, 16] was 85 to 94%. The pest or weed control at 140 g/ha [2, 16] was 95 to 100%, the pest or weed control at 70 g/ha [2, 17] was 0 to 29% and the pest or weed control at 140 g/ha [2, 17] was 0 to 29%. It also gave a melting point of 186 to 188 °C.
